Assay results taken from US20100075965A1, “PI3 KINASE INHIBITORS AND METHODS OF THEIR USE” (Novartis AG, priority 2006, published 2010).

Assays:
PI3 K Alpha = PI3 K Alpha (Homo sapiens, UniProt P42336); assay: PI3 kinase phosphorylation assays (homogenous solution phase, one step solid phase, ATP depletion/KinaseGlo); format: biochemical; conditions: read-out: PI3K Alpha IC50
A2780 cells = assay: Viability assay in A2780 (Cell Titer Glo); format: cell-based, human; conditions: Homo sapiens; A2780 cells; read-out: A2780 Cell prolif. EC50
Experimental: Cell viability was assessed with Cell Titer Glo assay, Promega. Cells were seeded in TC treated 96-well plates at a density of 1,000 (A2780 cells) per well in DMEM with 10% FBS, 1% Sodium Pyruvate, and 1% Penicillin Streptomycin for a minimum of 2 hrs prior to addition of compound. Test compounds were serially diluted (3 fold) in DMSO to 500× the final concentration. For each concentration of test compound, 2 μL (500×) aliquots of compound or 100% DMSO (control) were diluted in 500 μL of culture medium to 2× final concentration then diluted 1× on the cells. Cells were incubated for 72 hrs at 37° C., 5% CO2. After which Cell Titer Glo is added to determine viable cells, the assay was performed according to the manufacturer's instruction (Promega Corporation, Madison, Wis. USA). Each experimental condition was performed in duplicate. Raw data was imported in Abase and EC50s calculated with XL-fit data analysis software and are shown in Tables 1 and 2 in the column labeled “A2780 Cell prolif. EC50”.

Chain of PI3 K Alpha (P42336 whole entry): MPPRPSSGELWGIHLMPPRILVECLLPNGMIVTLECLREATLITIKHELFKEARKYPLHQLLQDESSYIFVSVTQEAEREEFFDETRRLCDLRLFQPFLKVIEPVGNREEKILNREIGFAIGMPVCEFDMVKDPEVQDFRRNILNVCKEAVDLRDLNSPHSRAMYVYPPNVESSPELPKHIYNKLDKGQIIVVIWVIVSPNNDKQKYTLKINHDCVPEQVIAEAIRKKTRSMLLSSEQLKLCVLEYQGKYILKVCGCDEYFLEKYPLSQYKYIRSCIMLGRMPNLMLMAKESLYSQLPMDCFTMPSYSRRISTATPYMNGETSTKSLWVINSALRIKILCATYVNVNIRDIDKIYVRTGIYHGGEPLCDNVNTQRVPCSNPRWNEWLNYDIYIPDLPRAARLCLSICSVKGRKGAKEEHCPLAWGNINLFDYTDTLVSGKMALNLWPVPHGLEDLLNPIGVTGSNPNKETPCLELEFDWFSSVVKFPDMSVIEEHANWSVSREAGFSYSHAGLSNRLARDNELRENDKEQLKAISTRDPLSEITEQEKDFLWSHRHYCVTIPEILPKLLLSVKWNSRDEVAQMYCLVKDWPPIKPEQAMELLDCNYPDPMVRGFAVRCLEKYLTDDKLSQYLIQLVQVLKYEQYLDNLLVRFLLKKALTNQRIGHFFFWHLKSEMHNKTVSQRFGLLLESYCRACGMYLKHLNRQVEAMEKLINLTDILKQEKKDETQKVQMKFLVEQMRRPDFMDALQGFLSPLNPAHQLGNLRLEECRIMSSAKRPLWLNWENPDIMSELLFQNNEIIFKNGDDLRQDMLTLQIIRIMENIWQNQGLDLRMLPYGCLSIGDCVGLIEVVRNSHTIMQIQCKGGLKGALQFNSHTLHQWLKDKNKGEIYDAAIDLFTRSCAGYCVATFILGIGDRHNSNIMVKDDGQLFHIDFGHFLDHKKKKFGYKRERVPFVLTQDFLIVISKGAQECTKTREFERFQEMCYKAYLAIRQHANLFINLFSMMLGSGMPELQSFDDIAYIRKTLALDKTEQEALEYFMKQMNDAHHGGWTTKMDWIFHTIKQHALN
Chain of PI3 K Alpha (P27986 whole entry partner): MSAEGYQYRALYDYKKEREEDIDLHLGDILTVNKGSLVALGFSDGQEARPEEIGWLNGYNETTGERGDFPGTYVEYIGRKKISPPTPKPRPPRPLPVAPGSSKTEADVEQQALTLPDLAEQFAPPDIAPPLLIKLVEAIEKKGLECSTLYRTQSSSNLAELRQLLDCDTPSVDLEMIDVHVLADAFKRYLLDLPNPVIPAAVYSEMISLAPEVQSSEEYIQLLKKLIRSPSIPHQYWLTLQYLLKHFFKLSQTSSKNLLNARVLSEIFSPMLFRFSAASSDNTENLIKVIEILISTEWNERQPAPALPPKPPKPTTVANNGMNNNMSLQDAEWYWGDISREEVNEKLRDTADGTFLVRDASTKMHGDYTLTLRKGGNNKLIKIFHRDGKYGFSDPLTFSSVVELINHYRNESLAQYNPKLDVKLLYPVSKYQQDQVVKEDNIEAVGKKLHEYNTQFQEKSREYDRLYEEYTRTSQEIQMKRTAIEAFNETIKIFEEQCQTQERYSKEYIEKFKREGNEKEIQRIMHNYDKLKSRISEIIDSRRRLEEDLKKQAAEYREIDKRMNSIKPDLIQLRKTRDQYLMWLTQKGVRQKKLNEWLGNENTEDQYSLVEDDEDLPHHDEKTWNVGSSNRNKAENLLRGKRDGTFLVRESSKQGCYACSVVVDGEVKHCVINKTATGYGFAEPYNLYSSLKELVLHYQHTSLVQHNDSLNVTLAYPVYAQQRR

| IC50 (PI3 K Alpha) | EC50 (A2780 cells) | Structure (SMILES) |
| --- | --- | --- |
| < 1 µM | < 25 µM | CC(=O)Nc1cn2cc(-c3cnc(N)c(C(=O)NCCNS(C)(=O)=O)n3)ccc2n1 [Example 158, 6-(2-acetamido-imidazo[1,2-a]pyridin-6-yl)-3-amino-N-(2-(methylsulfon amido)ethyl) pyrazine-2-carboxamide] |
| < 1 µM | < 25 µM | N#Cc1ccc(C(=O)Nc2cn3cc(-c4cnc(N)c(C(F)(F)F)c4)ccc3n2)cc1 [Example 159, N-(6-(6-amino-5-(trifluoromethyl)pyridin-3-yl)imidazo[1,2-a]pyridin-2-yl)-4-cyanobenzamide] |
| < 1 µM | < 25 µM | CC(=O)Nc1cn2cc(-c3cnc(N)c(C(=O)N4CCNCC4)c3)ccc2n1 [Example 160, N-(6-(6-amino-5-(piperazine-1-carbonyl)pyridin-3-yl)imidazo[1,2-a]pyridin-2-yl)acetamide] |
| < 1 µM | < 25 µM | CC(=O)Nc1cn2cc(-c3cnc(N)cn3)ccc2n1 [Example 161, N-(6-(5-aminopyrazin-2-yl)imidazo[1,2-a]pyridin-2-yl)acetamide] |
| < 1 µM | < 25 µM | CC(=O)Nc1ccc(-c2c(NC(C)=O)nc3ccc(-c4cnc(N)c(C(F)(F)F)c4)cn23)cc1 [Example 162] |
| < 1 µM | < 25 µM | Nc1ncc(-c2ccc3nc(NC(=O)c4ccncc4)cn3c2)cc1C(F)(F)F [Example 163] |
| < 1 µM | < 25 µM | CC(=O)Nc1cn2cc(-c3cnc(N)c(Br)n3)ccc2n1 [Example 164, N-(6-(5-amino-6-bromopyrazin-2-yl)imidazo[1,2-a]pyridin-2-yl)acetamide] |
| < 1 µM | < 25 µM | COC[C@@H]1CCCN1C(=O)Nc1cn2cc(-c3cnc(N)c(C(F)(F)F)c3)ccc2n1 [Example 165, (S)-N-(6-(6-amino-5-(trifluoromethyl)pyridin-3-yl)imidazo[1,2-a]pyridin-2-yl)-2-(methoxymethyl) pyrrolidine-1-carboxamide] |
| < 1 µM | < 25 µM | CC(C)(C)OC(=O)N1CCC[C@H]1C(=O)Nc1cn2nc(-c3cnc(N)c(C(F)(F)F)c3)ccc2n1 [Example 166, (S)-tert-butyl 2-(6-(6-amino-5-(trifluoromethyl)pyridin-3-yl)imidazo[1,2-b]pyridazin-2-ylcarbamoyl) pyrrolidine-1-carboxylate] |
| < 1 µM | < 25 µM | COc1cc(-c2ccc3nc(NC(C)=O)cn3c2C)cnc1N [Example 167, N-(6-(6-amino-5-methoxypyridin-3-yl)-5-methylimidazo[1,2-a]pyridin-2-yl)acetamide] |
| < 1 µM | < 25 µM | C=Cc1c(NC(C)=O)nc2ccc(-c3cnc(N)c(C(F)(F)F)c3)cn12 [Example 168, N-(6-(6-amino-5-(trifluoromethyl)pyridin-3-yl)-3-vinylimidazo[1,2-a]pyridin-2-yl)acetamide] |
| < 1 µM | < 25 µM | CC(C)(C)OC(=O)N1CC[C@H]1C(=O)Nc1cn2cc(-c3cnc(N)c(C(F)(F)F)c3)ccc2n1 [Example 169, (S)-tert-butyl 2-(6-(6-amino-5-(trifluoromethyl)pyridin-3-yl)imidazo[1,2-a]pyridin-2-ylcarbamoyl) azetidine-1-carboxylate] |
| < 1 µM | < 25 µM | CC(=O)Nc1cn2nc(-c3cnc(N)cn3)ccc2n1 [Example 170] |
| < 1 µM | < 25 µM | CC(=O)Nc1cn2cc(-c3cnc(N)c(C(F)(F)F)c3)c(F)cc2n1 [Example 171, N-(6-(6-amino-5-(trifluoromethyl)pyridin-3-yl)-7-fluoroimidazo [1,2-a]pyridin-2-yl)acetamide] |
| < 1 µM | < 25 µM | CC(=O)N1CCC[C@H]1C(=O)Nc1cn2cc(-c3cnc(N)c(C(F)(F)F)c3)ccc2n1 [Example 172, (S)-1-acetyl-N-(6-(6-amino-5-(trifluoromethyl)pyridin-3-yl)imidazo[1,2-a]pyridin-2-yl)pyrrolidine-2-carboxamide] |
| < 1 µM | < 25 µM | CC(=O)Nc1cn2cc(-c3cnc(N)c(CN4CCCC4)c3)ccc2n1 [Example 173, N-(6-(6-amino-5-(pyrrolidin-1-ylmethyl)pyridin-3-yl)imidazo[1,2-a]pyridin-2-yl)acetamide] |
| < 1 µM | < 25 µM | CC(C)(C)OC(=O)N1CCC1C(=O)Nc1cn2cc(-c3cnc(N)c(OCC(F)(F)F)n3)ccc2n1 (centres unmarked) [Example 174, tert-butyl 2-(6-(5-amino-6-(2,2,2-trifluoroethoxy)pyrazin-2-yl)imidazo[1,2-a]pyridin-2-ylcarbamoyl) azetidine-1-carboxylate] |

| IC50 (PI3 K Alpha) | EC50 (A2780 cells) | Structure (SMILES) |
| --- | --- | --- |
| < 1 µM | < 25 µM | Nc1ncc(-c2ccc3nc(NC(=O)N4CCCC4c4ccccn4)cn3c2)cc1C(F)(F)F (centres unmarked) [Example 175, N-(6-(6-amino-5-(trifluoromethyl)pyridin-3-yl)imidazo[1,2-a]pyridin-2-yl)-2-(pyridin-2-yl)pyrrolidine-1-carboxamide] |
| < 1 µM | < 25 µM | CC(=O)Nc1cn2nc(-c3cnc(N)c(N4CCOCC4)n3)ccc2n1 [Example 176, N-(6-(5-amino-6-morpholino-pyrazin-2-yl)imidazo[1,2-b]pyridazin-2-yl)acetamide] |
| < 1 µM | < 25 µM | Nc1ncc(-c2ccc3nc(NC(=O)c4ccccn4)cn3c2)cc1C(F)(F)F [Example 177] |
| < 1 µM | < 25 µM | Nc1ncc(-c2ccc3nc(NC(=O)[C@H]4CCCN4)cn3n2)cc1C(F)(F)F [Example 178, (R)-N-(6-(6-amino-5-(trifluoromethyl)pyridin-3-yl)imidazo[1,2-b]pyridazin-2-yl)pyrrolidine-2-carboxamide] |
| < 1 µM | < 25 µM | CC(C)(C)OC(=O)N1CCC[C@@H]1C(=O)Nc1cn2nc(-c3cnc(N)c(C(F)(F)F)c3)ccc2n1 [Example 179, (R)-tert-butyl amino-5-(trifluoromethyl) pyridin-3-yl)imidazo[1,2-b]pyridazin-2-ylcarbamoyl) pyrrolidine-1-carboxylate] |
| < 1 µM | < 25 µM | Cc1ccc(C2CCCN2C(=O)Nc2cn3cc(-c4cnc(N)c(C(F)(F)F)c4)ccc3n2)s1 (centres unmarked) [Example 180, N-(6-(6-amino-5-(trifluoromethyl)pyridin-3-yl)imidazo[1,2-a]pyridin-2-yl)-2-(5-methyithiophen-2-yl)pyrrolidine-1-carboxamide] |
| < 1 µM | < 25 µM | CCN(CC)Cc1cc(-c2ccc3nc(NC(C)=O)cn3c2)cnc1N [Example 181, N-(6-(6-amino-5-((diethylamino)methyl)pyridin-3-yl)imidazo[1,2-a]pyridin-2-yl)acetamide] |
| < 1 µM | < 25 µM | CC(=O)N1CCC[C@H]1C(=O)Nc1cn2cc(-c3cnc(N)c(Cl)c3)ccc2n1 [Example 182, (S)-1-acetyl-N-(6-(6-amino-5-chloropyridin-3-yl)imidazo[1,2-a]pyridin-2-yl)pyrrolidine-2-carboxamide] |
| < 1 µM | < 25 µM | CC(=O)Nc1cn2cc(-c3cnc(N)c(-c4ccc(F)cc4)c3)ccc2n1 [Example 183, N-(6-(6-amino-5-(4-fluorophenyl)pyridin-3-yl)imidazo[1,2-a]pyridin-2-yl)acetamide] |
| < 1 µM | < 10 µM | CCC(=O)Nc1cn2cc(-c3cnc(N)c(OC)n3)ccc2n1 [Example 185, N-(6-(5-amino-6-methoxypyrazin-2-yl)imidazo[1,2-a]pyridin-2-yl)propionamide] |
| < 1 µM | < 10 µM | CC(=O)Nc1cn2nc(-c3cnc(N)c(-c4cccc(C(F)(F)F)c4)c3)ccc2n1 [Example 186, N-(6-(6-amino-5-(3-(trifluoromethyl)phenyl)pyridin-3-yl)imidazo[1,2-b]pyridazin-2-yl)acetamide] |
| < 1 µM | < 10 µM | Nc1ncc(-c2ccc3nc(NC(=O)C4CCN4)cn3n2)cc1C(F)(F)F (centres unmarked) [Example 189] |
| < 1 µM | < 10 µM | Nc1ncc(-c2ccc3nc(NC(=O)N4CCCC4C(F)(F)F)cn3c2)cc1C(F)(F)F (centres unmarked) [Example 191] |
| < 1 µM | < 10 µM | Nc1ncc(-c2ccc3nc(NC(=O)c4cccc(F)c4)cn3c2)cc1C(F)(F)F [Example 192, N-(6-(6-amino-5-(trifluoromethyl)pyridin-3-yl)imidazo[1,2-a]pyridin-2-yl)-3-fluorobenzamide] |
| < 1 µM | < 10 µM | CC(C)(C)OC(=O)N1CC(C(=O)Nc2cn3nc(-c4cnc(N)c(C(F)(F)F)c4)ccc3n2)C1 [Example 197, tert-butyl 3-(6-(6-amino-5-(trifluoromethyl)pyridin-3-yl)imidazo[1,2-b]pyridazin-2-ylcarbamoyl) azetidine-1-carboxylate] |
| < 1 µM | < 10 µM | Nc1ncc(-c2ccc3nc(NC(=O)CN4CCCCC4)cn3c2)cc1C(F)(F)F [Example 198, N-(6-(6-amino-5-(trifluoromethyl)pyridin-3-yl)imidazo[1,2-a]pyridin-2-yl)-2-(piperidin-1-yl)acetamide] |
| < 1 µM | < 10 µM | CCOCC(=O)Nc1cn2cc(-c3cnc(N)c(C(F)(F)F)c3)ccc2n1 [Example 199, N-(6-(6-amino-5-(trifluoromethyl)pyridin-3-yl)imidazo[1,2-a]pyridin-2-yl)-2-ethoxyacetamide] |
